# According to US8940310B2, “Methods of treatment using TLR7 and/or TLR9 inhibitors” (Dynavax Technologies Corporation, priority 2010, dated 2015):
# Marks after values point to notes of the source that are not given here.
# Assay: High dosages of IRPs in mice (weight, histology)
# Format: in vivo, BALB/c mice
# Details: ISS control (5 mg/kg)
# Procedure: To test the activity of IRPs at high dosages in mice, IRPs or a control (saline) were subcutaneously administered to BALB/c mice at a dosage of 4 mg/kg, 20 mg/kg, 50 mg/kg, or 100 mg/kg on days 1, 4, 7, and 10 (n=5 per group). Mice were weighed prior to administration and on days 2, 4, 7, 9, and 11. Serum cytokines were assayed at two hours post the first and third injections and 24 hours post the fourth injection. Organs were harvested at the end of the study, and organ weights and tissues levels of the oligonucleotides were determined. In addition, histological evaluation of the liver, kidney, and heart was performed.
# Mice were weighed prior to administration and on days 1, 3, 4, 6, 7, and 9. Organs were harvested at the end of the study, and organ weights and tissues levels of the oligonucleotides were determined. In addition, histological evaluation of the liver, kidney, and heart was performed.
substance,measurement,setting,value
"5′-TGACTGTGAACGTTCGAGATGA-3′ [SEQ ID NO:157, reference compound]","Heart: Chronic inflammation, number of animals",,2
same,"Heart: Mineralization, number of animals",,1
same,"Heart: Chronic inflammation, mean severity score",0 = no change to 4 = severe,2.0
same,"Heart: Mineralization, mean severity score",0 = no change to 4 = severe,4.0
same,"Liver: Liver changes, mean severity score",0 = no change to 4 = severe,2.0
same,"Liver: Mixed cell infiltration, mean severity score",0 = no change to 4 = severe,3.0
same,"Right Kidney: Tubular basophilia, mean severity score",0 = no change to 4 = severe,2.0
same,"Liver: Liver changes, number of animals",6 animals,6
same,"Liver: Mixed cell infiltration, number of animals",6 animals,6
same,"Liver: No significan changes, number of animals",6 animals,0
same,"Right Kidney: No significant changes, number of animals",6 animals,5
same,"Right Kidney: Tubular basophilia, number of animals",6 animals,1
same,"Right Kidney: Tubular changes, number of animals",6 animals,0
same,"Heart: No significant changes, number of animals",tissue missing in two animals,1**
